From PMC12775819, “Optimizing PSMA-617-based inhibitors through charged linker modifications: Insights into structure-activity relationships” (Theranostics, 2026)
Non-standard residues stand in square brackets, D forms with d. Residues, ends and D or L forms follow the SMILES beside them. *: point of attachment. DOTA = O=C(O)CN1CCN(CC(=O)O)CCN(CC(=O)*)CCN(CC(=O)O)CC1; EuK = O=C(O)CC[C@H](NC(=O)N[C@@H](CCCCN*)C(=O)O)C(=O)O; 2Nal = N[C@@H](Cc1ccc2ccccc2c1)C(=O)O; Trx = NC[C@H]1CC[C@H](C(=O)O)CC1

Key:
[1] = Dynamic small-animal PET imaging (0 - 60 min); settings: male, BALB/c nu/nu, mouse, tumor (LNCaP xenograft), iv, 500 pmol, total radioactivity
[2] = Static small-animal PET imaging 1 h and 2 h p.i.; settings: male, BALB/c nu/nu, mouse, iv, 500 pmol, total radioactivity; for SUV at 1 h / SUV at 2 h: 68Ga-labeled, 0.5 nmol i.v., n = 1, SD from VOIs; for SUV at 1 h: static PET 1 h p.i.; for SUV at 2 h: static PET 2 h p.i.
[3] = tumor (LNCaP xenograft), SUV tumor

- SUV at 1 h [1]: 1.07 SUV
- SUV at 1 h ([2]; kidneys, SUV kidneys): 3.81 ± 0.15 SUV
- SUV at 2 h ([2]; kidneys, SUV kidneys): 2.77 ± 0.2 SUV
- SUV at 1 h [2, 3]: 1.15 ± 0.04 SUV
- SUV at 2 h [2, 3]: 1.07 ± 0.09 SUV
- tissue to tissue ratio at 1 h ([2]; tumor / muscle): 10.5 ± 0.2
Structure (SMILES): O=C(O)CC[C@H](NC(=O)N[C@@H](CCCCNC(=O)[C@H](Cc1ccc2ccccc2c1)NC(=O)[C@H]1CC[C@H](CNC(=O)[C@H](CCC(=O)O)NC(=O)[C@H](Cc2c[nH]cn2)NC(=O)[C@H](CCC(=O)O)NC(=O)[C@H](Cc2c[nH]cn2)NC(=O)[C@H](CCC(=O)O)NC(=O)[C@H](Cc2c[nH]cn2)NC(=O)CN2CCN(CC(=O)O)CCN(CC(=O)O)CCN(CC(=O)O)CC2)CC1)C(=O)O)C(=O)O [[^68Ga]Ga-PS4, metal not drawn] ({DOTA}-HEHEHE[Trx][2Nal]-EuK)
